Measured values taken from patent US6406866B1 (OREGON HEALTH SCIENCES UNIVERSITY, dated 2002).

Key:
[1] = target: T1, novel mammalian opioid receptor (MSOR, LC132) (Rattus norvegicus, UniProt P35370); type: binding
T1 construct: The entire coding region of the receptor cDNA insert was subcloned in to the RcRSV vector; expressed in transfected cells

[2] = test system: untransfected COS-7 and Ltk- cells; assay: Radioligand binding to membranes of untransfected cells (control); conditions: untransfected COS-7 and Ltk- cell membranes
[3] = Open-field observation of behavioral signs after peptide administration; type: in vivo, mice
Procedure: (§1) For these experiments, the peptide was administered intracerebroventricularly (i.c.v.) and intrathecally (i.t.) in mice. Immediately after peptide administration, mice were placed in transparent boxes in groups of three and behavioral signs recorded. Emphasis was placed on signs indicative of depressant, stimulant and autonomic effects of the peptide (as described by Irwin, 1968, Psychopharmacologia 13: 222). […] The effects of the peptide on horizontal (FIG. 10A) and vertical (FIG. 10B) locomotor activity was measured using Digiscan Animal Activity Monitors (Omnitech, Columbus Ohio). The values for horizontal and vertical locomotor activity represent the total number of interruptions of the horizontal and vertical sensors during the first 10 min following administration of the peptide. Data are shown as the mean ± standard error of the mean.

[4] = Horizontal and vertical locomotor activity (Digiscan Animal Activity Monitors); type: in vivo, mice; conditions: i.c.v., 0.1-10 nmol/2 μL/mouse, first 10 min
Procedure: as §1

[5] = Hot plate test of nociception; toe- and tail-pinch reflexes; type: in vivo, mice
Procedure: Groups of 6-8 male MORO mice (weight=22 g) were administered phosphate buffered saline (open circles) or varying doses of the orphanin peptide. Reaction time represents the time taken for the mice to lick their paws. The hot plate was set to 58° C., and a cutoff time of 60 sec was used. […] (designated by an asterisk). This observation was most likely related to a decrease in locomotor activity and muscle tone.

[6] = target: T2, novel mammalian MSOR opioid receptor (methadone-specific opioid receptor) (rat, UniProt P35370 1-367); assay: assay not described
T2 construct: cAMP assays used whole cells; also called LC132; novel mammalian opioid receptor
T2 chain: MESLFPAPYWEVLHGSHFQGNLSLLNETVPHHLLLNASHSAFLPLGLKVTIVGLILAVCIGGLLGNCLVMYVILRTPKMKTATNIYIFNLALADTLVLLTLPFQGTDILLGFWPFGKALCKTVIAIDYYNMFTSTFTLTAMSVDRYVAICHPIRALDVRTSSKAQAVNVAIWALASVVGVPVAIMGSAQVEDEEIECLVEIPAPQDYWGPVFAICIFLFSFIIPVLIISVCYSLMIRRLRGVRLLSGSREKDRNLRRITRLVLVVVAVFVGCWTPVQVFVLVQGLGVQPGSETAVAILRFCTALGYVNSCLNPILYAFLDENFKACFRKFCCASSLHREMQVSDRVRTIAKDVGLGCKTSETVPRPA

[7] = target: T2, novel mammalian MSOR opioid receptor …; assay: saturation radioligand binding (scintillation proximity assay) to membranes of MSOR-transfected CHO cells (LC-7), Scatchard analysis
[8] = target: T2, novel mammalian MSOR opioid receptor …; assay: cell-based or functional assay

T1 sequence (P35370 whole entry): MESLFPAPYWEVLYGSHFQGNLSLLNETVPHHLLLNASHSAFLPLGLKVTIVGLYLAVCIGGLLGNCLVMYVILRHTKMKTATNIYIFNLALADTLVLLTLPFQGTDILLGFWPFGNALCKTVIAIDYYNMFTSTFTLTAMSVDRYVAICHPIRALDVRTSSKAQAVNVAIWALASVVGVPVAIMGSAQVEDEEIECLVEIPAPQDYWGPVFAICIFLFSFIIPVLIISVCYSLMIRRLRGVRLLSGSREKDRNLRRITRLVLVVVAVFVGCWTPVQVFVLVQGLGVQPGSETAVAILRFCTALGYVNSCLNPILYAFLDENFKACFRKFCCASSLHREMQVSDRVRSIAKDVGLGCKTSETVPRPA

β-endorphin
specific binding of the radioactively-labeled opioid agonist or antagonist [1]: no specific binding

CCC12CCN(CC3(O)CC3)C(Cc3ccc(O)cc31)C2(C)C (centres unmarked) [bremacozine]
specific binding of the radioactively-labeled opioid agonist or antagonist [1]: no specific binding

C=CCN1CC[C@]23c4c5ccc(O)c4O[C@H]2C(=O)CC[C@@]3(O)[C@H]1C5 [naloxone]
endogenous specific binding of the radioligand [2]: endogenous low levels of specific

CCC(=O)C(CC(C)N(C)C)(c1ccccc1)c1ccccc1 (centres unmarked) [methadone]
Bmax [1]: 400-450 femtomoles/μg protein
specific binding of the radioactively-labeled opioid agonist or antagonist [1]: specific binding was found
endogenous specific binding of the radioligand [2]: no or negligible amounts

CC[C@]12CCN(CC3CC3)[C@H](C(=O)c3ccc(O)cc31)[C@@H]2C [ethylketocyclazocine]
specific binding of the radioactively-labeled opioid agonist or antagonist [1]: no specific binding

CN1CC[C@]23c4c5ccc(O)c4O[C@H]2[C@@H](O)CC[C@H]3[C@H]1C5 [dihydromorphine]
specific binding of the radioactively-labeled opioid agonist or antagonist [1]: no specific binding

CC(C)C[C@H](NC(=O)[C@H](CCCCN)NC(=O)[C@H](CCCNC(=N)N)NC(=O)[C@H](C)NC(=O)[C@H](CO)NC(=O)[C@H](CCCCN)NC(=O)[C@H](CCCNC(=N)N)NC(=O)[C@H](C)NC(=O)CNC(=O)[C@@H](NC(=O)[C@H](Cc1ccccc1)NC(=O)CNC(=O)CNC(=O)[C@@H](N)Cc1ccccc1)[C@@H](C)O)C(=O)N[C@@H](C)C(=O)N[C@@H](CC(N)=O)C(=O)N[C@@H](CCC(N)=O)C(=O)O [orphanin FQ]
ataxia [3]: ataxia
muscle tone [3]: decrease in muscle tone
righting reflex [3]: loss of righting reflex
influence on locomotor activity ([3]; i.c.v. and i.t. administration): profound influence on locomotor activity
horizontal locomotion [4]: decrease
vertical locomotion [4]: decrease
toe- and tail-pinch reflexes ([5]; all doses tested): normal
inhibition of nociception ([5]; i.c.v., all doses except the highest, 10 nmol/mouse): No significant inhibition
analgesic effect in hot plate test ([5]; i.c.v., hot plate 58° C., cutoff 60 sec): little analgesic effect
analgesic effect ([5]; i.t., 2.5-10 nmol/4 μL/animal): No analgesic effect
motor effects at the highest dose ([5]; i.t., highest dose): hindlimb paralysis and decrease in locomotor activity

C[C@@H](NC(=O)[C@@H](N)Cc1ccc(O)cc1)C(=O)NCC(=O)N(C)[C@@H](Cc1ccccc1)C(=O)NCCO [DAMGO, Tyr-DAla-Gly-Met-Phe-Gly-ol]
specific binding of the radioactively-labeled opioid agonist or antagonist [1]: no specific binding

YGGFLRRQFKVVT [dynorphin B]
binding result [6]: no binding

YGGFL [Leu-Enkephalin]
binding result [6]: no binding

YGGFMTSEKSQTPLVT [α-endorphin]
binding result [6]: no binding

B1: monoiodinated Y14-orphanin FQ (peptide)
peptide: FGGFTGARKSARKYANQ
modifications: monoiodotyrosine at position 14 (125I in the binding assay), made by the chloramine T method
notes: also called I-Y14
Kd [7]: 0.3 nM

FGGFTGARKSARKYANQ [Y14-orphanin FQ]
cAMP inhibition assay in MSOR-transfected CHO cells, EC50 [8]: 1 nM

YGGFLRRIRPKLKWDNQ [dynorphin A]
binding result [6]: no binding
